# Legend:
# adjuvant arthritis = test: Rat Adjuvant Arthritis Test; type: in vivo, SD rats; conditions: 3 mg/kg, oral
# Description: SD rats were injected subcutaneously with […] liquid paraffin/rat of H-37RA strain in the plantar area of the right hind paw. Only liquid paraffin (0.05 ml) was administered to control groups in the same manner. 21 days after the administration, rats showing the evidence of arthritis were selected and divided into groups having equal mean left and right hind paw volumes, and also having equal arthritis scores. From the date of the grouping, the test samples were administered orally to the rats once daily for 7 days (only the solvent was administered to the negative and positive control groups). The degree of the arthritis was quantitatively evaluated by measuring the volumes of the left and right hind paws by using a volume meter (manufactured by Muromachi Kikai) and by scoring the degree of arthritis by macroscopic observation as illustrated in Table 2. According to the scoring criteria in Table 2, 15 is a perfect score.
# The dosage of each of the test samples was 3 mg/kg.
# [1] = tested on: pain threshold of brewer's yeast inflamed hind paw; test: Analgesic Action Test (Randall et al.); type: in vivo, SD rats; conditions: 3 mg/kg
# Description: SD rats (6 rats per group) fasted overnight were employed for the test. After the measurement of pain threshold values of the left and right hind paws twice using an analgesimeter, the rats were injected subcutaneously with 0.1 ml of 20% brewer's yeast solution at the plantar area of the right hind paw to elicit inflammation. Two hours after the elicitation of inflammation, the pain threshold values of the left and right hind paws were measured and, immediately after the measurement, the test samples were administered orally to the rats. Three hours after the administration, the pain threshold values of the left and right hind paws were measured. […] The dosage amount of each of the test samples was 3 mg/kg.
# Pain threshold value rising rate (%)=((pain threshold value of 3 hours after drug administration-pain threshold value of 2 hours after yeast administration)/(pain threshold value before yeast administration-pain threshold value of 2 hours after yeast administration))×100
# Pain threshold value fluctuation rate (%)=(1 -(pain threshold value of 3 hours after drug administration/pain threshold value of 2 hours after […]
# Brewer's Yeast Fever = test: Antipyretic Action Test With Respect To Brewer's Yeast Fever; type: in vivo, rats
# Description: The antipyretic action was measured as described in the following. A sensor was inserted into the rectum of each rats and the body temperature of one hour after the insertion was recorded as the basal body temperature. The rats were injected subcutaneously with 2 ml/body of 20% brewer's yeast at the region of back and, 18 hours after the injection, the intrafebrile body temperatures were measured. Rats who had shown not less than 0.75° C. of body temperature elevation were selected to whom the test samples was administered orally. The body temperatures of the selected rats were measured every one hour for the following 5 hours. The dosage of each of the test samples was 10 mg/kg.
# Human COX-2 = target: T1, Human COX-2 (Homo sapiens, UniProt P35354); test: Human COX-2 Inhibitory Activity Test (LPS-induced PGE2 in blood); type: cell-based
# T1 construct: endogenous in cells; host or cells: heparinised whole blood of a healthy human donor pretreated with aspirin, stimulated with LPS (own knowledge: COX-2 is induced in monocytes)
# T1 sequence (P35354 18-604): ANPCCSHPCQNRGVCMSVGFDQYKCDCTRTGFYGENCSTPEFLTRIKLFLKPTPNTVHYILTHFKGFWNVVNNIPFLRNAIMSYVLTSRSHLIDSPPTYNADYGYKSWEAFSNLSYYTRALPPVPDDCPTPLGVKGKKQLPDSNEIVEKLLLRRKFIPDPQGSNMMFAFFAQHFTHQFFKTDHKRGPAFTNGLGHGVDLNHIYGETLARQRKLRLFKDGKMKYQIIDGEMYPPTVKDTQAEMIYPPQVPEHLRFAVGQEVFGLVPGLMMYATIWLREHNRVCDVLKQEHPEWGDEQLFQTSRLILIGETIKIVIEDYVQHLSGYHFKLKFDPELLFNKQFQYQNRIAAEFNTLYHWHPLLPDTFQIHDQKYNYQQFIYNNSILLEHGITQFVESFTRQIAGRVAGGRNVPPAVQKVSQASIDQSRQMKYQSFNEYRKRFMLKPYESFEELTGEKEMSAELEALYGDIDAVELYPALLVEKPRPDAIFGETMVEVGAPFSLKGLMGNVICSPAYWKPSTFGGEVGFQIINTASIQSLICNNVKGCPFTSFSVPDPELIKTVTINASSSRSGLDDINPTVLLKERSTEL
# Description: (§1) COX-1 and COX-2 activities were measured according to the method of Patrignani et al. (J. Pharm. Exp. Ther. Vol. 271, 1705 (1994)).
# (2) COX-2 activity was measured in the following procedure. To blood collected from a healthy normal who had taken 330 mg of aspirin 48 hours before the blood collection in order to inhibit the COX-1 activity, 10 unit/ml of sodium heparin was added, and then pipetted into glass test tubes by 1 ml. 10 μg/ml of Lipopolysaccharide (LPS) was added thereto and the plasma obtained by the specified operation was stored at -40° C. until the measurement for the amount of prostaglandin E2 (PGE2). Test samples containing the test samples were treated in the same manner of operation as described above.
# (4) The measurement for the PGE2 content was conducted in the following procedure. In a part of 96 well plate coated with goat anti-mouse antibody, 2 wells were alloted respectively to a blank well, Non-specific Binding (NSB) well, Maximum Binding (B0) well, standard wells at seven concentrations of PGE2 (1000 pg/ml) in doubling dilution ranging from 1000-15.6 pg/ml. The rest of the wells were used for the sample measurement. EIA buffer was added to the NSB wells (100 μl) and to the B0 wells (50 μl), respectively. 50 μl of each of the standard dilution was added in an order from thinner to thicker concentrations. Each of the samples was added to the rest of the wells in an amount of 50 μl. Then, 50 μl of PGE2 tracer was added to each of the wells except for blank wells. Further, 50 μl PGE2 monoclonal antibody was added to each of the wells except for the NSB wells and blank wells, then the well plate was covered with a plastic film and the reaction continued at room temperature for 18 hours. When the reaction was terminated, the wells were washed 5 times with a wash buffer. 200 μl of Elman's reagent was added to each of the wells, and then the well plate was covered with a plastic film and developed for 60 minutes in a dark place. The absorbance at 405 nm was measured by an Immuno Reader (NJ-2000, manufactured by Nippon Intermed Co., Ltd.). From the measurement result, %B/B0 was calculated and, applying it to the approximation formula of Hill Plot, the concentration of the samples was determined to be 40 times concentration. The dilution was conducted with an EIA buffer throughout the Test Example 3.
# Human COX-1 = target: T2, Human COX-1 (Homo sapiens, UniProt P23219); test: Human COX-1 Inhibitory Activity Test (TXB2 in blood); type: cell-based; conditions: IC50 from Hill Plot
# T2 construct: endogenous in cells; host or cells: whole blood of a healthy human donor (own knowledge: TXB2 of clotting blood comes from platelet COX-1)
# T2 sequence (P23219 24-599): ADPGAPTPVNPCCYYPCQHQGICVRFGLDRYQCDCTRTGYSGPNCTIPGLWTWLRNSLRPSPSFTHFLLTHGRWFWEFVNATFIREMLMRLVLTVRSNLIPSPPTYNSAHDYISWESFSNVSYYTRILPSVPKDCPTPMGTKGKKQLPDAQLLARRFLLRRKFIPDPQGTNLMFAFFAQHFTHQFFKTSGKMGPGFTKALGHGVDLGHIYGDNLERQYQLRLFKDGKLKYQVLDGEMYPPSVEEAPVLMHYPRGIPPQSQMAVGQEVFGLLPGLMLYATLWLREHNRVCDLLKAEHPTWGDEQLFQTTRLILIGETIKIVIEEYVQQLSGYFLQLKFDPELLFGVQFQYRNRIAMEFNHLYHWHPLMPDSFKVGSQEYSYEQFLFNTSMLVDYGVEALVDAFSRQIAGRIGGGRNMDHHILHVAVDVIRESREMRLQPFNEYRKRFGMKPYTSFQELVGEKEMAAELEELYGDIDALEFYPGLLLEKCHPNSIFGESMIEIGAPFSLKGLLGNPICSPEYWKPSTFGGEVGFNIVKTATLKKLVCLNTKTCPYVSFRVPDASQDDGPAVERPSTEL
# Description: as §1
# (1) COX-1 activity was measured in the following procedure. […] The serum obtained by 10 minutes of centrifugation at 2000 rpm at 4° C. was stored at -40° C. until the measurement of the amount of thromboxane B2 (TXB2). The test samples, which had been dissolved in ethanol and diluted to the specified concentrations, were previously dispensed into the glass test tubes, and the solvent was evaporated to dryness by Centrifugal Vaporizer (CVE-200D, manufactured by Tokyo Rika Mfg. Co., Ltd.) so that the test samples were added to the plasma.
# (3) The measurement for the TXB2 content was conducted in the following procedure. In a part of a 96 well plate coated with anti-rabbit IgG antibody, 2 wells were allotted respectively to blank well, Non-specific Binding (NSB) well, Maximum Binding (B0) well, standard wells at 7 concentrations of TXB2 (1000 pg/ml) in doubling dilution ranging from 1000-15.6 pg/ml. The rest of the wells were used for the measurement of the samples. EIA buffer was added to the NSB wells (100 μl ) and B0 wells (50 μl), respectively. 50 μl of each of the standard dilution was added in an order from thinner to thicker concentrations. Each of the samples was added to the rest of the wells in an amount of 50 μl. Then, 50 μl of TXB2 tracer was added to each of the wells except for the blank wells. Further, 50 μl of TXB2 antibody was added to each of the wells except for the NSB wells and blank wells, then the well plate was covered with a plastic film and the reaction continued for 18 hours at room temperature. When the reaction was terminated, the wells were washed 5 times with a wash buffer. 200 μl of Elman's reagent was added to each of the wells and then the well plate was covered with a plastic film and developed for 60 minutes in a dark place. The absorbance at 405 nm was measured by an Immuno Reader (NJ-2000, manufactured by Nippon Intermed Co., Ltd.). From the measurement result, %B/B0 was calculated and, applying it to the approximation formula of Hill Plot, the concentration of the samples was determined to be 2,000 times concentration. […]
# carrageenan footedema = test: Carrageenan Footedema Suppression Test; type: in vivo, SD rats; conditions: oral; paw volume three hours after carrageenan administration
# Description: The carrageenin footedema suppression test was conducted according to the method of Winter et al. (J. Pharm. Exp. Ther., Vol.141, 369 (1963)). The test samples suspended in Tween 80 were administered orally to SD rats (6 rats per 1 group) in an amount of 1 ml per 100 g of the body weight, while only the solvent was administered in the same manner as above as a control. One hour after the administration, 1% carrageenan physiological saline was injected subcutaneously to the rats in the plantar area of the right hind paw. Three hours after the carrageenan administration, the paw volumes were measured and the edematization rate (%) was calculated with Formula 1 and then edematization suppression rate (%) was calculated with Formula 2.
# Edematization rate (%)=((paw volume after carrageenan injection- paw volume before carrageenan injection)/(paw volume before carrageenan injection)×100 Formula: 1
# Edematization suppression rate (%)=((edematization rate of control-
# edematization rate of test samples)/edematization rate of […]
# Sarcoma 180 solid tumor = test: Antitumor Effect with respect to Sarcoma 180 Solid Tumor Mouse; type: in vivo, ICR mice; conditions: 10 mg/kg in abdominal cavity, 10 days; day 11
# Description: The antitumor effect test was conducted according to the method of the U. S. National Cancer Institute (NCI) (Cancer Chemotherapy Reports part 3, Vol. 3, 1 (1978)). Cell suspension of Sarcoma 180 cells (mouse sarcoma virus) which was employed as the tumor cell strain for transplant was prepared by diluting the cells in the Hank's solution at 2×10^7 cells/ml concentration ([…]), and ICR mice (10 mice per group) aged 5 weeks were injected subcutaneously with 0.2 ml of the cell suspension at the region of the back. Setting the day of the tumor transplantation as day 0. the mice were administered in the abdominal cavity with the compounds of the invention (Preparation Examples 1 and 37), 5-fluorouracyl, and the solution as the control for 10 days consecutively from day 1. On day 11, the mice were sacrificed, and portions of the solid tumor were removed so that weights thereof were measured. The dosage of each of the test samples was 10 mg/kg.
# CaCo-2 cells = test: Cytostatic Action Test on Various Cells (XTT method); type: cell-based; conditions: Homo sapiens, Caco-2, 72 h, read-out: Cytostatic rate (IC50)
# Description: The cytostatic measurement of the various cancer cells were conducted according to the method of the U.S. National Cancer Institute (NCI). Adhesive cells such as CaCo-2 and HepG2 were adjusted in each of the specified culture mediums at 0.5×10^5 cells/ml concentration and pipetted into a 96 well-plate (Costar3695) in an amount of 100 μl/well. The cells were cultured under the conditions of at 37° C. in 5% CO2 atmosphere for 24 hours to allow the cell adhesion, and then the numbers of each of the cells were determined by the XTT method to be recorded as the cell number of day 0 (C0days). After that, only the medium solutions were exchanged in the control groups, and culture mediums each containing the test samples adjusted to each of the specified concentrations were exchanged In the test sample dispensing groups, then the cells were cultured under the conditions of at 37° C. in 5% CO2 atmosphere for 72 hours. The numbers of each of the cells were determined by the XTT method to be recorded as the cell number of day 3 (C3days). Further, only the medium solutions were pipetted into the control groups and the test sample administration groups were adjusted to 5×10^5 cells/ml concentrations in each of the specified culture mediums containing the test samples adjusted to each of the specified concentrations, then pipetted into a 96 well-plate (Costar3695) in an amount of 100 μl/well. The cells were cultured under the condition of at 37° C. in 5% CO2 atmosphere for 72 hours, and the number of each of the cells (T3days) were determined in the same manner.
# Cell proliferation rate (%) with respect to control groups=[(T3days
# -C0days)/(C3days -C0days)]×100 Formula: 5
smiles,measurement,setting,value
"COc1ccc2c(c1)c(CC(=O)O)c(C)n2C(=O)c1ccc(Cl)cc1 [Indomethacin, reference compound]",Right Hind Paw Volume day 21,"adjuvant arthritis; day 21 (starting date of administration), once daily",3.88 mL
same,Right Hind Paw Volume day 27,"adjuvant arthritis; day 27, once daily for 7 days",2.69 mL
"CS(=O)(=O)Nc1ccc([N+](=O)[O-])cc1OC1CCCCC1 [Control Compound (c), N-(2-cyclohexyloxy-4-nitrophenyl)methanesulfonamido, reference compound]","threshold value fluctuation, non-inflammatory paw",[1],exerted no influence on the threshold value fluctuation with respect to the non-inflammatory paw in the same manner as control compound (c)
same,Pain Threshold Value Fluctuation Rate,"[1]; po, 3 h",-1.46%
same,Pain Threshold Value Rising Rate,"[1]; po, 3 h",24.0%
same,Body temperature 1 Hour After,"Brewer's Yeast Fever; 10 mg/kg oral, 1 hour after",37.67 °C
same,Body temperature 3 Hours After,"Brewer's Yeast Fever; 10 mg/kg oral, 3 hours after",37.04 °C
same,Body temperature 5 Hours After,"Brewer's Yeast Fever; 10 mg/kg oral, 5 hours after",37.12 °C
same,Intrafebrile Body Temperature,"Brewer's Yeast Fever; 18 hours after yeast injection, before administration, 10 mg/kg group",38.89 °C
same,Basal Body Temperature,"Brewer's Yeast Fever; one hour after sensor insertion, before yeast, 10 mg/kg group",37.41 °C
"COc1ccc(-c2cc(C)[nH]c2-c2ccc(OC)cc2)cc1 [Control compound (a), 4,5-bis(4-methoxyphenyl)-2-methyl-1H-pyrrole, reference compound]",IC50,"Human COX-2; human blood, LPS, PGE2, IC50 from Hill Plot",4.82 µM
same,COX-1/COX-2,Human COX-2; ratio of IC50 COX-1 to COX-2,< 0.1
same,IC50,Human COX-1,0.001 µM
same,Edematization Suppression rate,carrageenan footedema,23.4%
"O=c1[nH]cc(F)c(=O)[nH]1 [5-fluorouracil, reference compound]",Tumor Weight,Sarcoma 180 solid tumor,0.930 g
same,IC50,CaCo-2 cells,3.3 µM
